Source: the NIST ThermoML archive (doi:10.1021/je100362p)

Columns and labels:
[1] = xn = mol fraction of the nth substance listed; conditions: 308.15 K, 101 kPa, Liquid; for speed of sound: Sing-around technique in a fixed-path interferometer
[2] = refractive index (Na D-line) (dimensionless); xn = mol fraction of the nth substance listed; conditions: 101 kPa, Liquid, Standard Abbe refractometry

Cc1ccccc1O [2-methylphenol] + CCCCCCCCCCO
[1]
Conditions	mass density [kg/m3]	speed of sound [m/s]
x1 = 0.0861	830.549	–
x1 = 0.1516	839.316	–
x1 = 0.2077	847.206	–
x1 = 0.2717	856.691	–
x1 = 0.334	866.475	–
x1 = 0.4103	879.298	–
x1 = 0.4797	891.869	–
x1 = 0.5545	906.559	1386.8
x1 = 0.6165	919.727	1394.1
x1 = 0.6875	936.089	1403.7
x1 = 0.7538	952.828	1414.1
x1 = 0.8245	972.475	1426.8
x1 = 0.8811	989.769	1439.1
x1 = 0.941	1009.79	1454.4
x1 = 1	1031.55	1470.3

refractive index, [2]
Conditions	298.15 K	303.15 K	308.15 K
x1 = 0.0861	1.43944	1.43742	1.43507
x1 = 0.1516	1.44351	1.44139	1.43893
x1 = 0.2077	1.44727	1.44505	1.44249
x1 = 0.2717	1.45185	1.44952	1.44685
x1 = 0.334	1.45667	1.45426	1.45145
x1 = 0.4103	1.46311	1.46058	1.45761
x1 = 0.4797	1.46956	1.46691	1.46379
x1 = 0.5545	1.47719	1.47444	1.47117
x1 = 0.6165	1.48412	1.48132	1.47792
x1 = 0.6875	1.49283	1.49001	1.48643
x1 = 0.7538	1.50182	1.49892	1.49522
x1 = 0.8245	1.51242	1.50948	1.50566
x1 = 0.8811	1.52175	1.51879	1.51489
x1 = 0.941	1.53252	1.52952	1.52555
x1 = 1	1.544	1.54099	1.53699
